Drawing on patent US9260436B2 (Sumitomo Chemical Company, Limited, priority 2012, dated 2016), this text covers pest or weed control and controlling value for nine molecules.

Assay [1] relates to Haemaphysalis longicornis. In words: Test Example 11: coated screw tube contact test, Haemaphysalis longicornis nymphal ticks. The assay is classed as in vivo. As to conditions: 48 h, 2 mg compound in 0.2 mL acetone coated on inner wall of screw tube, after 2 days, read-out: death rate. How it is done:
2 mg of each of Compounds of Present Invention 6, 8, 10, 26, 28, 29, 33, 35 and 37 was weighed in a screw tube (Maruemu No. 5; 27×55 mm), and 0.2 mL of acetone was added thereto and sealed with a cap to dissolve the compound. The screw tube was rotated and inverted to uniformity coat the drug solution onto the whole inner wall of the tube. After removing the cap, the solution was air-dried for about 2 hours, then non-blood-sucking nymphal ticks, Haemaphysalis longicornis (5 ticks/group) were released, and the tube was sealed with the cap. After 2 days, the number of dead ticks was examined, and the death rate was calculated according to the following equation: Death rate (%)=100×(Number of dead ticks/Number of tested ticks).

Another assay concerns Aphis gossypii. Briefly: Test Example 2: foot drench of cucumber seedling, then inoculation with Aphis gossypii. In kind it is in vivo. As to conditions: 500 ppm, 5 ml drenched at foot of cucumber seedling, 7 days then inoculation, further 6 days. How it is done:
On the other hand, a cucumber seedling (the second true leaf stage) planted in a plastic cup was drenched at its foot with 5 ml of the test drug solution, and kept in a greenhouse at 25° C. for 7 days. On the cucumber leaf surface was inoculated 30 Aphis gossypii (whole stage), and further kept in the greenhouse for 6 days, then the number of surviving Aphis gossypii parasitized on the leaves of the cucumber was examined, and the controlling value was calculated according to the following equation: Controlling value (%)={1−(Cb×Tai)/(Cai×Tb)}×100 wherein the symbols represent as follows: Cb: the number of insects in a non-treated section before treatment, Cai: the number of insects in a non-treated section on observation, Tb: the number of insects in a treated section before treatment, Tai: the number of insects in a treated section on observation, wherein the non-treated section refers to a section where the test drug solution prepared by diluting the formulation not containing the compound of the present invention as in Formulation Example 5 with the same amount of water as in the treated section was sprayed.

SMILES strings stand for the structures. Some results are limits rather than exact numbers.

For `CCSc1ccccc1-c1cnc2nc(C(F)(F)F)cn2c1` [Compound of Present Invention 35, 6-(2-ethylsulfanylphenyl)-2-trifluoromethylimidazo[1,2-a]pyrimidine], the pest or weed control at 2 mg/tube in assay [1] stood at 100%.

Take `CCSc1ccccc1-c1ccc2nc(C(F)(F)F)cn2c1` [Compound of Present Invention 26, 6-(2-ethylsulfanylphenyl)-2-trifluoromethylimidazo[1,2-a]pyridine]: in assay [1], the pest or weed control at 2 mg/tube was 100%.

Regarding `CCSc1ccccc1-c1ccc2nc(C(F)(F)F)cn2n1` [Compound of Present Invention 33, 6-(2-ethylsulfanylphenyl)-2-trifluoromethylimidazo[1,2-b]pyridine], the pest or weed control at 2 mg/tube in assay [1] came out at 100%.

For the molecule `CCSc1ccccc1-c1ccn2cc(C(F)(F)F)nc2c1` [Compound of Present Invention 37, 7-(2-ethylsulfanylphenyl)-2-trifluoromethylimidazo[1,2-a]pyridine], the pest or weed control at 2 mg/tube in assay [1] is 100%.

With `CCSc1ccccc1-c1ccc2nc(C(F)(F)F)cn2c1C` [Compound of Present Invention 28, 6-(2-ethylsulfanylphenyl)-5-methyl-2-trifluoromethylimidazo [1,2-a]pyridine], the pest or weed control at 2 mg/tube in assay [1] was 100%.

With `CCCNc1nc(-c2ccccc2SCC)nc2cc(C(F)(F)F)ccc12` [Compound of Present Invention 8, 2-(2-ethylsulfanylphenyl)-4-propylamino-7-trifluoromethylquinazoline], the pest or weed control at 2 mg/tube in assay [1] is 100%.

For the molecule `CCS(=O)(=O)c1ccccc1-c1cnc2nc(C(F)(F)F)cn2c1`, the controlling value in the assay on Aphis gossypii is no less than 90%.

For `CCSc1ccccc1-c1ccc2nc(C(F)(F)C(F)(F)F)cn2c1C` [Compound of Present Invention 29, 6-(2-ethylsulfanylphenyl)-5-methyl-2-pentafluoroethylimidazo[1,2-a]pyridine], the pest or weed control at 2 mg/tube in assay [1] was determined as 100%.

Regarding `CCCNc1nc(-c2ccccc2S(=O)(=O)CC)nc2cc(C(F)(F)F)ccc12` [Compound of Present Invention 10, 2-(2-ethylsulfonylphenyl)-4-propylamino-7-trifluoromethylquinazoline], the pest or weed control at 2 mg/tube in assay [1] amounted to 100%.
